Experimental data taken from US9689043B2 (CHUNGBUK NATIONAL UNIVERSITY INDUSTRY—ACADEMIC COOPERATION …, priority 2012, dated 2017).

Test system: T24 human bladder cancer cells
Experiment: Cell viability assay (MTS) in transfected T24 cells incubated with drugs
Format: cell-based
Experimental: T24 human bladder cancer cells were purchased from American Type Culture Collection (ATCC, Manassas, Va.) and maintained in RPMI1640 media (Invitrogen, Carlsbad, Calif.) with 10% FBS and 1% Penicillin/Streptomycin at 37° C. under 5% CO2. T24 cells at ˜80% confluence were transiently transfected with expressing constructs or small interfering RNAs (siRNAs) of EGFR and S100A9 using Lipofactamine 2000. For S100A9 overexpression, pCMV-Sports6-S100A9 and vector constructs were kindly provided by Dr. A. Moon (Duksung University, Korea). As transfection controls, empty (Ctrl) or NON-TARGET control siRNAs (siCtrl) were used.
Cell viability was determined using MTS reagents as instructed by the manufacturer's protocol (Promega Corporation, Madison, Wis.).

Compound | Cell viability (T24 cells, EGFR inhibition with Iressa (FIG. 6, line 2)) | Chemo-sensitivity to cisplatin (T24 cells, EGFR inhibition with Iressa plus cisplatin (FIG. 6, line 2)) | Chemo-sensitivity to cisplatin (T24 cells, Iressa combined with S100A9 silencing by siRNA, plus cisplatin (FIG. 6, line 4)) | Cisplatin-induced apoptosis / viability (EGFR overexpressing T24 cells, 10 μM cisplatin, serum free medium)
COc1cc2ncnc(Nc3ccc(F)c(Cl)c3)c2cc1OCCCN1CCOCC1 [Iressa, gefitinib] | significantly reduced viability | enhanced chemo-sensitivity to cisplatin | synergistically enhanced chemo-sensitivity | –
N.N.[Cl][Pt][Cl] [cisplatin] | – | – | – | did not show significant apoptosis until 24 h-treatment
